How the values were obtained:
[1] = system: elderly patients with cognitive dysfunction; experiment: double-blind multicenter clinical trial in elderly patients with cognitive dysfunction; type: in vivo, human; conditions: 237 elderly patients (>=65 years), versus placebo; BEHAVE-AD, BPRS and CGI rating scales
Protocol: Changes in behavioral manifestations were measured using the BEHAVE-AD, BPRS, and CGI rating scales, which are known and available to the skilled artisan.

[2] = detection of radiolabelled compound in saliva; type: in vivo
Protocol: For example, in the treatment of adult humans, dosages of from about 0.25 to 50 mg, preferably from 1 to 30 mg, and most preferably 1 to 20 mg per day may be used. A once a day dosage is normally sufficient, although divided doses may be administered. For treatment of cognitive dysfunction, a dose range of from 1 to 30 mg, preferably 1 to 20 mg per day is suitable.

[3] = system: muscarinic cholinergic receptor; conditions: results of pharmacological studies
[4] = target: T1, 5-HT1C receptor (Homo sapiens, UniProt P28335); experiment: 5-HT1C receptor activity
T1 sequence (P28335 33-458): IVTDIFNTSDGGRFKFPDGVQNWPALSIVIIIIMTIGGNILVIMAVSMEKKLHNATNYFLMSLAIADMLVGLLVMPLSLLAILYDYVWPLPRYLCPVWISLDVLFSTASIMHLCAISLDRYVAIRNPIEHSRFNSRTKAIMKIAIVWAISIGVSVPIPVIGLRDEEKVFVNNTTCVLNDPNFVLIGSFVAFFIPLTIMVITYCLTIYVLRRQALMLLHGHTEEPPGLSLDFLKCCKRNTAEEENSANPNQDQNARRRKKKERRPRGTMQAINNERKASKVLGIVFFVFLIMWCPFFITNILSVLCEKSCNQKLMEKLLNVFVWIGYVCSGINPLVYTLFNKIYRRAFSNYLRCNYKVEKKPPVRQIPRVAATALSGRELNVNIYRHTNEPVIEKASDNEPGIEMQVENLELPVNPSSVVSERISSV

Compound | changes in behavioral manifestations [1] | detection in saliva [2] | muscarinic cholinergic receptor activity [3] | activity at the 5-HT1C receptor [4]
Cc1cc2c(s1)Nc1ccccc1N=C2N1CCN(C)CC1 [2-methyl-4-(4-methyl-1-piperazinyl)-10H-thieno[2,3-b][1,5]benzodiazepine] | can be useful for the treatment of behavioral manifestations of cognitive dysfunction | can be detected in the saliva | has muscarinic cholinergic receptor activity | –
Cc1cc2c(s1)Nc1ccccc1N=C2N1CCN(C)CC1 [anhydrous Form I compound, 2-methyl-4-(4-methyl-1-piperazinyl)-10H-thieno[2,3-b][1,5]benzodiazepine] | – | – | – | active
